Experiment [1] has as its target IDO2 (Homo sapiens (Human), UniProt Q6ZQW0). Briefly: Cellular IDO2 assay, doxycycline and 5-methoxy-L-tryptophan medium, colorimetric. Format: cell-based. The conditions noted are these: cellular level, 72 h incubation, signal at 480 nm.
Experimental: IDO2 inhibition at the cellular level was evaluated in vitro using the following procedure.
Using cell culture medium, the volume of the suspension was adjusted to achieve a cell concentration of 20,000 cells/well (90 uL/well).
5-Methoxy-L-tryptophan powder was dissolved in the culture medium to a concentration of 10 mM, then filtered and sterilized with a 0.22 um filter. Doxycycline powder was dissolved in ddH2O to a concentration of 100 ug/ml, then filtered and sterilized with a 0.22 um filter. 5-aminolevulinic acid powder was dissolved in ddH2O to a concentration of 400 mM, then filtered and sterilized with a 0.22 um filter. A 2× Assay medium was then by diluting the doxycycline (from 100 ug/ml to 2 ug/ml) and 5-Methoxy-L-tryptophan (from 10 mM to 5 mM) in culture medium. The 5-aminolevulinic acid solution was also added to the solution (diluting the concentration from 400 mM to 2 mM) to get a 2× working solution.
After incubation, plates and reagents were allows to equilibrate to room temperature. […] Trichloroacetic acid powder was dissolved in ddH2O to prepare 6.1N trichloroacetic acid. […] The plates were incubated at 55° C. for 40 minutes, and then centrifuged for 10 min at 2500 rpm. […] Measurement of the signal was performed using Envision at 480 nm. Throughout the foregoing process, care was taken to prevent exposure to light.
Experiment [2] concerns the target Indoleamine 2,3-dioxygenase 1 (IDO1) (Homo sapiens (Human), UniProt P14902). Briefly: Cellular IDO1 assay: kynurenine production in IFN-γ-stimulated HeLa cells, colorimetric.

pIC50: −log10 of the molar value.

Chain of IDO2 (Q6ZQW0 whole entry, species assumed): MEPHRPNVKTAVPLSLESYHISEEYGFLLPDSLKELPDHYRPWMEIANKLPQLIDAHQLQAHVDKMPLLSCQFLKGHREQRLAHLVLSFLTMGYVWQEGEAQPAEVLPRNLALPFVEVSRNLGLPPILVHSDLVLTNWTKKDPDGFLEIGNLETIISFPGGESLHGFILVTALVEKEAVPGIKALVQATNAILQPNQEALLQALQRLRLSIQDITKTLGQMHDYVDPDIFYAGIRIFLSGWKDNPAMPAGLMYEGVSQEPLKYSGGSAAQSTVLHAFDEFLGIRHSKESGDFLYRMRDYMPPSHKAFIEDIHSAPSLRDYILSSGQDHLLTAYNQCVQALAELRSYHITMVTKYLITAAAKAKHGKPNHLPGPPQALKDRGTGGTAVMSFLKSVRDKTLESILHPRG
Chain of Indoleamine 2,3-dioxygenase 1 (IDO1) (P14902 whole entry): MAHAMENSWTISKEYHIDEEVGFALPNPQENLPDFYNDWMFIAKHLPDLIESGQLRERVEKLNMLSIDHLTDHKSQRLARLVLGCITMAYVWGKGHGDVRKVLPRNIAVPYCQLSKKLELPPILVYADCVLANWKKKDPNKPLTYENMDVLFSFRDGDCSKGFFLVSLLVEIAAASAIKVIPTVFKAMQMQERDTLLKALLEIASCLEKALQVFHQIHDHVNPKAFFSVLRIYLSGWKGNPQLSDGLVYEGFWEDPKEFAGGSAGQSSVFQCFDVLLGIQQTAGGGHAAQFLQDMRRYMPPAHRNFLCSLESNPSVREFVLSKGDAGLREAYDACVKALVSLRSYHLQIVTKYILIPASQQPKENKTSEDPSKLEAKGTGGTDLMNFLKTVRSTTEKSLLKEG

By pIC50 is commonly meant the negative decadic logarithm of the IC50, by convention in mol/L. Read a low pIC50 as a large IC50. `NS(=O)(=O)c1ccc2c(c1)C(=O)c1nc3cc(F)ccc3c(=O)n1-2` [Compound 27]: the pIC50 in experiment [1] was more than 7.30; in experiment [2] it was 6.30 to 7.30.

For the molecule `Nc1ccc2c(c1)C(=O)c1nc3cc(Cl)ccc3c(=O)n1-2` [Compound 5, 8-Amino-3-chloroindolo[2,1-b]quinazoline-6,12-dione], the pIC50 in experiment [1] is 6.30 to 7.30; in experiment [2] it was less than 6.30.

As for `O=C1c2cc(SCc3ccccc3)ccc2-n2c1nc1cc(F)ccc1c2=O` [Compound 28], the pIC50 in experiment [1] is more than 7.30; in experiment [2], 6.30 to 7.30.

For `N#Cc1ccc2c(c1)C(O)C1Nc3cc(F)ccc3C(=O)N21` (centres unmarked) [Compound 31, 3-Fluoro-6-hydroxy-12-oxo-5,5a,6,12-tetrahydroindolo[2,1-b]quinazoline-8-carbonitrile], the pIC50 was more than 7.30 in experiment [1] and 6.30 to 7.30 in experiment [2].

Take `O=C1c2cc([N+](=O)[O-])ccc2-n2c1nc1c(Br)c(Cl)ccc1c2=O` [Compound 50, 4-Bromo-3-chloro-8-nitroindolo[2,1-b]quinazoline-6,12-dione]: the pIC50 was 6.30 to 7.30 in experiment [1] and less than 6.30 in experiment [2].

As for `CN1CCN(Cc2ccc3c(=O)n4c(nc3c2)C(=O)c2cc(F)ccc2-4)CC1` [Compound 15, 8-Fluoro-3-((4-methylpiperazin-1-yl)methyl)indolo[2,1-b]quinazoline-6,12-dione], the pIC50 in experiment [1] and in experiment [2] was 6.30 to 7.30 throughout.

For `Cc1cccc2c(=O)n3c(nc12)C(=O)c1cc([N+](=O)[O-])ccc1-3` [Compound 42, 4-Methyl-8-nitroindolo[2,1-b]quinazoline-6,12-dione], the pIC50 in experiment [1] and in experiment [2] was more than 7.30 throughout.
